The record followed here is patent publication US9511048B2, “Use of flavone compound for prevention or treatment of obesity” (INDUSTRY-ACADEMIC COOPERATION FOUNDATION, YONSEI UNIVERSITY, priority 2012, dated 2016).

The subject of assay [1] is UCP2 and UCP3 expression in 3T3-L1 adipocytes. In words: Western blot of thermogenic proteins. It is filed as cell-based. Here is the method: (§1) It was examined whether the expression of proteins involved in lipid production was reduced by 5,7-dimethoxyflavone treatments in 3T3-L1 adipocytes. 3T3-L1 adipocytes were induced to differentiate in the same manner as described in Example 1-1, and were lysed with a RIPA buffered solution containing a proteinase inhibitor cocktail. Protein samples were boiled for 5 minutes, loaded ([…]) on 10% SDS-PAGE gels and separated by electrophoresis. Separated proteins were transferred to the nitrocellulose membranes and subjected to western blot experiments. Protein-transferred membranes were reacted with primary antibodies, rinsed with TBST three times, 10 minutes each. The dilution ratio of primary antibodies was 1:1000. Membranes reacted with primary antibodies were followed with secondary antibody incubation (anti-rabbit horseradish) for 2 hours at room temperature. The dilution ratio of secondary antibodies was 1:5000. Protein bands were visualized with ECL western blotting detection reagents (Amersham, Tokyo, Japan). Proteins were harvested after eight days and subjected to western blot experiments.
Proteins were harvested from the 3T3-L1 adipocytes differentiated as described in Example 1-1, and subjected to western blot experiments in the same manner as in Example 1-2.

Another assay deals with 3T3-L1 preadipocytes. In words: Inhibition of lipid production, Oil Red O staining of differentiated adipocytes. The class given is cell-based. Here is the method: 3T3-L1 preadipocytes (American Type Culture Collection (ATCC), Manassas, Va., USA) were cultured in DMEM (Dulbecco's Modified Eagle's Medium) supplemented with 10% bovine calf serum, and seeded into 12-well microtiter plates with a density of 10^5 cells/well. Adipocyte differentiation was induced when the preadipocytes reached approximately 100% confluence after growing two more days at 90% confluence. For the experimental groups, induction of adipocyte differentiation was performed in the presence of 5,7-dimethoxyflavone at the concentration of 5, 10, or 20 μM dissolved in the culture medium containing dexamethasone, IBMX (3-isobutyl-1-methylxanthine), and insulin. Afterwards, cells of the experimental groups were maintained continuously in the presence of the same concentrations of 5,7-dimethoxyflavone dissolved in the culture medium containing 10% FBS and 0.1% insulin, replacing the medium every two days. For comparison, control cells were treated the same way as the cells of the experimental groups except for the 5,7-dimethoxyflavone treatment. On day 10 since induction of differentiation, fully differentiated adipocytes were stained with Oil Red O (Sigma, St. Louis, Mo., USA). Stained lipid droplets in the adipocytes were extracted with 100% isopropanol and subjected to the measurement of the absorbance at 500 nm using a spectrophotometer. […]

The test system of assay [2] is C57BL/6 mice with high-fat diet-induced obesity. In words: Weight-reducing effect in the mouse model of high fat diet-induced obesity. It is filed as in vivo. To be noted: 20 mg/kg oral once a day; for food intake versus control groups: eight weeks; for rate of weight gain at the end of eight weeks compared to the control group: p<0.05. Here is the method:
Three week-old C57BL/6 mice were acclimated for one week and fed with high-fat diet (product #D12492, Research Diet Inc., New Brunswick, N.J., USA) for six weeks to induce obesity. Mice were randomly divided into experimental and control groups, in total of four groups, ten per each group. The experimental groups were orally administered with either 5,7-dimethoxyflavone or 5,7,4′-trimethoxyflavone suspended in 0.25% carboxymethyl cellulose at a dose of 20 mg/kg body weight, once a day at regular hours for eight weeks. For comparison, the control groups were orally administered with 0.25% carboxymethyl cellulose only in the same manner as the experimental groups. Food intake and body weight of each sample mouse were measured every week.

The test system of assay [3] is SREBP1c, C/EBP, FAS and ACC expression in 3T3-L1 adipocytes. In words: Western blot of lipogenic transcription factors and enzymes. The class given is cell-based. To be noted: proteins harvested after eight days. Here is the method:
as §1

`COc1cc(OC)c2c(=O)cc(-c3ccccc3)oc2c1` [5,7-dimethoxyflavone]: the “expression of UCP2 and UCP3” value in assay [1] is “upregulated the expression of UCP2 and UCP3”. Further, in the assay with 3T3-L1 preadipocytes (5, 10 or 20 μM, day 10 after induction of differentiation, Oil Red O, absorbance 500 nm), the “lipid production in 3T3-L1 adipocytes” value was “suppresses lipid production in 3T3-L1 adipocytes effectively”. Moreover, in assay [2], the “food intake versus control groups” value is recorded as “no significant difference” and the “rate of weight gain at the end of eight weeks compared to the control group” value is “significantly lower”. Moreover, in assay [3], the “expression of SREBP1c, C/EBP, FAS and ACC” value is reported as “reduction in the expression”.
For the compound `COc1ccc(-c2cc(=O)c3c(OC)cc(OC)cc3o2)cc1` [5,7,4′-trimethoxyflavone], the “reduction in lipid production compared to the control” value with 3T3-L1 preadipocytes (20 μM, p<0.01) stood at 28%. Also, in assay [2], the “food intake versus control groups” value was “no significant difference” and the “rate of weight gain at the end of eight weeks compared to the control group” value was “significantly lower”.
